19 compounds from patent US7723358B2, “Aroyl-O-piperidine derivatives for the treatment of diabetes-related problems” (Merck Patent GmbH, priority 2004, dated 2010) can be followed below.

SMILES strings stand for the structures.

The test addresses T1, microsomal triglyceride transfer protein (MTP) (Mesocricetus auratus, UniProt P55158).
T1 construct: The supernatant comprising the soluble MTP is dialysed against Tris/HCl 150 mM; from tissue; host or cells: golden hamster liver microsomes, deoxycholate-solubilised supernatant, dialysed
T1 sequence (P55158 19-895): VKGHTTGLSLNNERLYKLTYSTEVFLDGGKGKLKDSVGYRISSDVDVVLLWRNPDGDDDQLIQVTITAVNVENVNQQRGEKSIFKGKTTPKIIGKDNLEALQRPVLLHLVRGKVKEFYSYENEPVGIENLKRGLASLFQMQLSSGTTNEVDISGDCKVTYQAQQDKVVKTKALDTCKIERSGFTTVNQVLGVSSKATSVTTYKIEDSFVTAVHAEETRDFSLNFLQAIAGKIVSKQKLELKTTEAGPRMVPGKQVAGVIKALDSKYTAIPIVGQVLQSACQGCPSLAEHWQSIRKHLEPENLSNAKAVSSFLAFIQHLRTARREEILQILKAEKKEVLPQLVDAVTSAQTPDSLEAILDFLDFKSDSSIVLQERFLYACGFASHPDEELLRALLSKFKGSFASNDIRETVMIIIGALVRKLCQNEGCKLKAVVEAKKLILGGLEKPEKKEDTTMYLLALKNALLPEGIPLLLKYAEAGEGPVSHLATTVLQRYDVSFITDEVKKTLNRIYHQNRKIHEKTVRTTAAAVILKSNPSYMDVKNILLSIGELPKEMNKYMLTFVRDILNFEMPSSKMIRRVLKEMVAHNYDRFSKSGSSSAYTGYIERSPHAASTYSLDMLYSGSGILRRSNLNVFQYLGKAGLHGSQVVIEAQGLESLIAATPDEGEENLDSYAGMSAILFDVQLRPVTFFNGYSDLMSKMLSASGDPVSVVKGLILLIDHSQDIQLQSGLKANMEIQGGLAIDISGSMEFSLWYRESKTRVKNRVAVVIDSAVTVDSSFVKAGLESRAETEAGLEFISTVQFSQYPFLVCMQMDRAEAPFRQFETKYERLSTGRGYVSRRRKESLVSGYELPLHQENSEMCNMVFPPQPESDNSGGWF
In words: Inhibition of MTP activity: transfer of [3H]-triolein from donor liposomes to biotinylated LDL, SPA. The class given is biochemical. The note with it: MTP from golden hamster liver; incubation 18-24 hours at 37° C.; read-out: IC50, concentration that allows a 50% inhibition of MTP. The protocol:
Analysis of the Inhibition of MTP Activity
The inhibition of the activity of microsomal triglyceride transfer protein (MTP) was tested by using the following operating protocol.
The inhibition of MTP activity with a compound can be quantified by observing the inhibition of the transfer of a labelled triglyceride, from a donor particle to an acceptor particle, in the presence of MTP. The procedure for the preparation of MTP is based on the method by Wetterau and Zilversmit (Biochem. Biophys. Acta (1986) 875, 610). A few grams of golden hamster liver are taken and then rinsed several times in a 250 mM sucrose solution at 0° C. All the following steps proceed at +4° C. A homogenate at a concentration of 50% in 250 mM sucrose is prepared using a Teflon mill and then centrifuged for 10 minutes at 10 000×g at +4° C. The supernatant is then centrifuged at 105 000×g for 75 minutes at +4° C. The supernatant is discarded and the microsomal pellet is taken up in 3 ml (per g of starting liver) of Tris/HCl 150 mM pH 8.0. 1-ml aliquot fractions are stored at −80° C. until the time of use.
After thawing a fraction of microsomes (1 ml), 12 ml of refrigerated Tris/HCl 50 mM, KCl 50 mM, MgCl2 5 mM pH 7.4 buffers and 1.2 ml of deoxycholate (0.54% in water) are added. After incubation for 30 minutes at +4° C. with gentle agitation, the suspension is centrifuged at 105 000×g for 75 minutes. The supernatant comprising the soluble MTP is dialysed against Tris/HCl 150 mM, NaCl 40 mM, EDTA 1 mM, 0.02% sodium azide pH 7.4 buffer (5 times one litre over 2-3 days). The MTP is stored at +4° C., is stable for at least 30 days and is used in unmodified form in the test.
The donor particles (liposomes) are prepared from 208 μl of L-phosphatidylcholine at a concentration of 10 mg/ml in chloroform, and 480 μl of [3H]-triolein at a concentration of 0.5 mCi/ml in toluene. After stirring, the solution is evaporated under nitrogen, taken up in 6 ml of Tris/HCl 50 mM, KCl 50 mM, MgCl2 5 mM pH 7.4 buffer and incubated in an ultrasound bath for 30 minutes at room temperature. The liposomes are stored at +4° C. and sonicated again for 10 minutes before each use.
The acceptor particles are biotinylated low density lipoproteins (LDL-biot). These particles are supplied by the company Amersham.
The reaction mixture is prepared in untreated ½ well white plates (Corning Costar) by addition, in the following order, of: 5 μl of HEPES 50 mM, NaCl 150 mM, BSA 0.1% (w/v), 0.05% sodium azide (w/v), pH 7.4 buffer; 5 μl of liposome; 5 μl of LDL-biot; 5 μl of test products in DMSO; 5 μl of MTP. After incubation for 18-24 hours at 37° C., the reaction is stopped by adding 100 μl of Amersham SPA (Scintillation Proximity Assay) beads coupled to streptavidin, and the radioactivity is counted using a Top Count (Packard) machine at least one hour later. The inhibition of the transfer of the triglycerides with a compound is reflected by a reduction in the transferred radioactivity.
The results are expressed in terms of the IC50, i.e. the concentration that allows a 50% inhibition of MTP.
Regarding `Cc1cccc(C(=O)Nc2cccc(OC3CCN(Cc4ccc(N(C)C)cc4)CC3)c2)c1-c1ccc(OC(F)(F)F)cc1` [Example 84, N-[3-[[1-[[4-(dimethylamino)phenyl]-methyl]-4-piperidinyl]oxy]phenyl]-6-methyl-4′-(trifluoromethoxy)[1,1′-biphenyl]-2-carboxamide], the IC50 was 382 nM.

As for `Cc1ccc(CN2CCC(Oc3cccc(NC(=O)c4cccc(C)c4-c4ccc(OC(F)(F)F)cc4)c3)CC2)cc1` [Example 85, 6-methyl-N-[3-[[1-[(4-methylphenyl)-methyl]-4-piperidinyl]oxy]phenyl]-4′-(trifluoromethoxy)[1,1′-biphenyl]-2-carboxamide], the IC50 amounted to 392 nM.

As for `COCCOc1ccc(-c2ccccc2C(=O)Nc2cccc(OC3CCN(C(=O)OC(C)(C)C)CC3)c2)cc1` [Example 90, 1,1-dimethylethyl 4-[3-[[[4′-(2-methoxy-ethoxy)[1,1-biphenyl]-2-yl]carbonyl]-amino]phenoxy]-1-piperidinecarboxylate], the IC50 came to 392 nM.

`CCOC(=O)CCC(=O)N1CCC(Oc2cccc(NC(=O)c3cccc(C)c3-c3ccc(OC(F)(F)F)cc3)c2)CC1` [Example 96, ethyl 4-[3-[[[6-methyl-4′-(trifluoromethoxy)-[1,1′-biphenyl]-2-yl]carbonyl]amino]-phenoxy]-γ-oxo-1-piperidinebutanoate]: the IC50 turned out to be 128 nM.

As to `Cc1cccc(C(=O)Nc2cccc(OC3CCN(C(=O)c4cccs4)CC3)c2)c1-c1ccc(OC(F)(F)F)cc1` [Example 99, 6-methyl-N-[3-[[1-(2-thienylcarbonyl)-4-piperidinyl]oxy]phenyl]-4′-(trifluorometh-oxy)[1,1′-biphenyl]-2-carboxamide], the IC50 came to 416 nM.

Take `COc1ccc(C(=O)N2CCC(Oc3cccc(NC(=O)c4ccccc4-c4ccc(OC(F)(F)F)cc4)c3)CC2)cc1OC` [Example 104]: the IC50 was 294 nM.

With `COc1ccc(CC(=O)N2CCC(Oc3cccc(NC(=O)c4cccc(C)c4-c4ccc(OC(F)(F)F)cc4)c3)CC2)cc1OC` [Example 105, N-[3-[[1-[2-(3,4-dimethoxyphenyl)-acetyl]-4-piperidinyl]oxy]phenyl]-6-methyl-4′-(trifluoromethoxy)[1,1′-biphenyl]-2-carboxamide], the IC50 came out at 207 nM.

`Cc1cccc(C(=O)Nc2cccc(OC3CCN(C(=O)c4cccnc4)CC3)c2)c1-c1ccc(OC(F)(F)F)cc1` [Example 106, 6-methyl-N-[3-[[1-(3-pyridinylcarbonyl)-4-piperidinyl]oxy]phenyl]-4′-(trifluorometh-oxy)[1,1′-biphenyl]-2-carboxamide]: the IC50 was determined as 182 nM.

With `COc1ccc(CC(=O)N2CCC(Oc3cccc(NC(=O)c4ccccc4-c4ccc(OC(F)(F)F)cc4)c3)CC2)cc1OC` [Example 110, N-[3-[[1-[2-(3,4-dimethoxyphenyl)acetyl]-4-piperidinyl]oxy]phenyl]-4′-(trifluoro-methoxy)[1,1′-biphenyl]-2-carboxamide], the IC50 is 469 nM.

For `Cc1cccc(C(=O)Nc2cccc(OC3CCN(C(=O)c4ccco4)CC3)c2)c1-c1ccc(OC(F)(F)F)cc1` [Example 111, N-[3-[[1-(2-furanylcarbonyl)-4-piperidinyl]-oxy]phenyl]-6-methyl-4′-(trifluorometh-oxy)[1,1′-biphenyl]-2-carboxamide], the IC50 amounted to 409 nM.

In the case of `O=C(Nc1cccc(OC2CCN(C(=O)c3ccc([N+](=O)[O-])cc3)CC2)c1)c1ccccc1-c1ccc(OC(F)(F)F)cc1` [Example 112, N-[3-[[1-(4-nitrobenzoyl)-4-piperidinyl]-oxy]phenyl]-4′-(trifluaromethoxy)[1,1′-biphenyl]-2-carboxamide], the IC50 was 241 nM.

Turning to `Cc1cccc(C(=O)Nc2cccc(OC3CCN(C(=O)c4ccc([N+](=O)[O-])cc4)CC3)c2)c1-c1ccc(OC(F)(F)F)cc1` [Example 114, 6-methyl-N-[3-[[1-(4-nitrobenzoyl)-4-piperidinyl]oxy]phenyl]-4′-(trifluorometh-oxy)[1,1′-biphenyl]-2-carboxamide], the IC50 came out at 202 nM.

For the compound `O=C(Nc1cccc(OC2CCN(C(=O)c3ccno3)CC2)c1)c1ccccc1-c1ccc(OC(F)(F)F)cc1` [Example 115, N-[3-[[1-(5-isoxazolylcarbonyl)-4-piperi-dinyl]oxy]phenyl]-4′-(trifluoromethoxy)-[1,1′-biphenyl]-2-carboxamide], the IC50 turned out to be 433 nM.

Turning to `Cc1ccc(C(=O)N2CCC(Oc3cccc(NC(=O)c4cccc(C)c4-c4ccc(OC(F)(F)F)cc4)c3)CC2)cc1` [Example 116, 6-methyl-N-[3-[[1-(4-methylbenzoyl)-4-piperidinyl]oxy]phenyl]-4′-(trifluorometh-oxy)[1,1′-biphenyl]-2-carboxamide], the IC50 turned out to be 49.4 nM.

`O=C(Nc1cccc(OC2CCN(C(=O)c3cccnc3)CC2)c1)c1ccccc1-c1ccc(OC(F)(F)F)cc1` [Example 118, N-[3-[[1-(3-pyridinylcarbonyl)-4-piperidin-yl]oxy]phenyl]-4′-(trifluoromethoxy)[1,1′-biphenyl]-2-carboxamide]: the IC50 turned out to be 202 nM.

For the compound `O=C(Nc1cccc(OC2CCN(C(=O)c3ccccc3)CC2)c1)c1ccccc1-c1ccc(OC(F)(F)F)cc1` [Example 119, N-[3-[(1-benzoyl-4-piperidinyl)oxy]phenyl]-4′-(trifluoromethoxy)[1,1′-biphenyl]-2-carboxamide], the IC50 worked out at 661 nM.

In the case of `COC(=O)CC(=O)N1CCC(Oc2cccc(NC(=O)c3ccccc3-c3ccc(OC(F)(F)F)cc3)c2)CC1` [Example 125, methyl β-oxo-4-[3-[[[4′-(trifluoromethoxy)-[1,1′-biphenyl]-2-yl]carbonyl]amino]-phenoxy]-1-piperidinepropanoate], the IC50 came to 252 nM.

Take `CC(=O)OCC(=O)N1CCC(Oc2cccc(NC(=O)c3ccccc3-c3ccc(OC(F)(F)F)cc3)c2)CC1` [Example 126, N-[3-[[1-[2-(acetyloxy)acetyl]-4-piperidin-yl]oxy]phenyl]-4′-(trifluoromethoxy)[1,1′-biphenyl]-2-carboxamide]: the IC50 came out at 91.2 nM.

With `Cc1cccc(C(=O)Nc2cccc(OC3CCN(C(=O)CC(C)C)CC3)c2)c1-c1ccc(OC(F)(F)F)cc1` [Example 129, 6-methyl-N-[3-[[1-(3-methyl-1-oxobutyl)-4-piperidinyl]oxy]phenyl]-4′-(trifluorometh-oxy)[1,1′-biphenyl]-2-carboxamide], the IC50 stood at 136 nM.
